Results taken from patent publication US20220072162A1, “MAGNETIC RESONANCE IMAGING DRUG CONTAINING A DEUTERATED NATURAL BRANCHED-CHAIN AMINO ACID, AND DIAGNOSTIC METHOD USING SAID DRUG” (LIMITED LIABILITY COMPANY "SOLVEX" ("SOLVEX" LLC), priority 2018, published 2022).
One block for each compound: values may come before it.

What was measured:
[1] = rat, in vivo, 0.021 mg/kg; cited from earlier work
[2] = in vivo; cited from earlier work
[3] = Accumulation of freely diffusing deuterated compounds in organs and tissues; type: in vivo; details: authors' experiments and prior art
[4] = in vivo; cited from earlier work; remark: listed apart in the source
[5] = Source text: This exchange lowers the concentration of the deuterium label, while simultaneously increasing the background signal of heavy water (DOH), which is evenly distributed throughout the body due to rapid diffusion. This process leads to a decrease in the contrast of the image, and also prevents quantitive evaluation of deuterated component concentration by comparison with the intensity of natural DOH signal.
[6] = system: 4T1 breast carcinoma; experiment: Deuterium tomography (2H MRI) to visualize mouse 4T1 breast carcinoma in vivo (Examples 2, 4); details: for accumulation in tumor tissue (2H tomograms): i.p. to 20 g mouse: 20 mg valine-d6, 30 mg L-alanine-d3, 10 mg L-phenylalanine-d7; for accumulation selectivity in various organs (2H tomograms): i.p. to 20 g mouse: 30 mg L-alanine-d3, 10 mg L-phenylalanine-d7
Protocol: In this example, experiments were performed on Balb/c mice grafted with 4T1 breast carcinoma (injection of 5·10^5 cells/60 μl under the left forepaw 12 days before the experiment). An animal weighing 20 g was injected intraperitoneally with a solution of 20 mg valine-d6 in 0.5 ml of water. In 10 minutes after the injection, the animal was immobilized with isoflurane and placed on a heated bed in a tomograph. The surface ^2H receiving coil was positioned over the anterior part of the animal's body from the dorsal side, as indicated in FIG. 2 by the dotted line.
In this example, experiments were performed on Balb/c mice grafted with 4T1 breast carcinoma (injection of 5·10^5 cells/60 μl under the left forepaw 12 days before the experiment).
An animal weighing 20 g was injected intraperitoneally with a solution:
a) 30 mg of L-alanine-3,3,3-d3 in 0.5 ml of water; or
In 10 minutes after the injection, the animal was immobilized with isoflurane and placed on a heated bed in a tomograph. The surface ^2H receiving coil was positioned over the anterior part of the animal's body from the dorsal side, as indicated in FIG. 4 by the dotted line.

[7] = Solubility in water for injection; type: physicochemical; details: 10 mg in 1.0 ml of water was the dose given
[8] = in vivo; cited from earlier work; remark: listed apart in the source
[9] = Content of valine-d6 in tissues of mice with 4T1 breast carcinoma, 2H NMR of tissue extracts (Example 5); type: in vivo, Balb/c mice; details: for [valine-d6], 30 min.: 30 min after 20 mg i.p. to 20 g mouse; for [valine-d6], 1 hour: 1 hour after 20 mg i.p. to 20 g mouse
Protocol: After administration, the animal was kept in a separate cage with access to food and water. After a certain time after administration, the animal was devitalized by dislocation of the cervical vertebrae. Samples of animal organs and tissues were quickly removed and frozen in liquid nitrogen. Frozen samples were ground in a porcelain mortar while cooling with liquid nitrogen. A weighed portion (50-200 mg) of the obtained powder was quickly introduced into 0.4% hydrochloric acid (0.6-1.0 ml) heated to 98° C. The resulting suspension was kept at 98° C. for 15 min with occasional shaking. After adding an internal standard (3-O—(CD3)-glucose solution), the mixture was shaken and centrifuged until the solid fractions were completely separated. The solution was analyzed by ^2H NMR.

[10] = Distribution and metabolism of deuterated valine mixture in tissues, isotopomer ratio by LC-MS/MS (Example 6); type: in vivo, Balb/c mice; details: 60 minutes after 20 mg i.p., 49% in initial drug
Protocol: In this example, L-valine-d6/d7, partially deuterated at the α position and positions 4, 4′, was used. (S-valine-d6/d7). The total molar fraction of α-deuterated forms of valine in the initial diagnostic drug is 49%.
After administration, the animal was kept in a separate cage with access to food and water. After 60 minutes after administration, the animal was devitalized by dislocation of the cervical vertebrae. Samples of animal organs and tissues were quickly removed and frozen in liquid nitrogen. Frozen samples were ground in a porcelain mortar while cooling with liquid nitrogen. A weighed portion (about 50 mg) of the obtained powder was quickly introduced into 0.4% hydrochloric acid (1.0 ml) heated to 98° C. The resulting suspension was kept at 98° C. for 15 min with occasional shaking, then centrifuged. The solution was diluted with 3 volumes of acetonitrile, centrifuged after 15 minutes, diluted with 9 volumes of water, and centrifuged again. The ratio of isotopomers d5, d6, and d7 of valine was determined by LC-MS/MS.

Compound: CC(C)C(N)[14C](=O)O (racemic) [DL-1-^14C-valine]
increase of absolute concentration of valine in liver and kidneys over physiological [1]: no more than 0.3 nmol/g
elimination of isotopic label in the form of CO2 [2]: 28%
organ of main accumulation [2]: accumulate mainly in the pancreas

Compound: CC(C)[C@H](N)[11C](=O)O [1-^11C-valine]
organ of main accumulation [2]: accumulate mainly in the pancreas

Compound: [2H]O [DOH]
non-toxic replacement of water in the body [4]: 10-30%

Compound: CC(C)C(N)[14C](=O)O (stereo not shown) [^14C-valine]
time within which most of the label accumulated in liver and pancreas is included in protein [8]: ≤ 10 min

Compound: [2H]C([2H])(N)C(=O)O [glycine-2,2-d2]
loss of deuterium in vivo [5]: lose deuterium in vivo very quickly

More lines, main results first:

selective accumulation in various organs and tissues [3]: do not show selective accumulation
Compound: [2H]O[2H] [D2O]

loss of deuterium in vivo [5]: lose deuterium in vivo very quickly
accumulation in tumor tissue (2H tomograms) [6]: do not accumulate in tumor tissue
Compound: [2H]C([2H])([2H])[C@H](N)C(=O)O [L-alanine-3,3,3-d3]
accumulation selectivity in various organs (2H tomograms) [6]: do not show accumulation selectivity in various organs

solubility [7]: low solubility
accumulation in tumor tissue (2H tomograms) [6]: do not accumulate in tumor tissue
Compound: [2H]c1c([2H])c([2H])c(C([2H])([2H])[C@H](N)C(=O)O)c([2H])c1[2H] [L-phenylalanine-β,β,2,3,4,5,6-d7]
accumulation selectivity in various organs (2H tomograms) [6]: do not show accumulation selectivity in various organs

accumulation in tumor tissue compared to kidneys, heart, brain, skeletal muscles and adipose tissue ([9]; 1 hour after the injection): increased accumulation
[valine-d6], 30 min. ([9]; Brain): 1.6 µmol/g
[valine-d6], 1 hour ([9]; Brain): 2.6 µmol/g
[valine-d6], 30 min. ([9]; Fat tissue): 4.0 µmol/g
[valine-d6], 1 hour ([9]; Fat tissue): 1.7 µmol/g
[valine-d6], 30 min. ([9]; Heart): 7.5 µmol/g
[valine-d6], 1 hour ([9]; Heart): 8.0 µmol/g
[valine-d6], 30 min. ([9]; Kidneys): 9.3 µmol/g
[valine-d6], 1 hour ([9]; Kidneys): 7.5 µmol/g
[valine-d6], 30 min. ([9]; Liver): 17.9 µmol/g
[valine-d6], 1 hour ([9]; Liver): 11.5 µmol/g
[valine-d6], 30 min. ([9]; Lungs): 10.6 µmol/g
[valine-d6], 1 hour ([9]; Lungs): 8.8 µmol/g
[valine-d6], 30 min. ([9]; Sceletal muscles): 7.4 µmol/g
[valine-d6], 1 hour ([9]; Sceletal muscles): 7.7 µmol/g
[valine-d6], 30 min. ([9]; Spleen): 14.7 µmol/g
[valine-d6], 1 hour ([9]; Spleen): 14.1 µmol/g
Tumor:tissue ratio, 30 min. ([9]; Tumor:Brain): 5.8
Tumor:tissue ratio, 1 hour ([9]; Tumor:Brain): 3.8
Tumor:tissue ratio, 30 min. ([9]; Tumor:Fat tissue): 2.3
Tumor:tissue ratio, 1 hour ([9]; Tumor:Fat tissue): 5.8
Tumor:tissue ratio, 30 min. ([9]; Tumor:Heart): 1.2
Tumor:tissue ratio, 1 hour ([9]; Tumor:Heart): 1.2
Tumor:tissue ratio, 30 min. ([9]; Tumor:Kidneys): 0.99
Tumor:tissue ratio, 1 hour ([9]; Tumor:Kidneys): 1.3
Tumor:tissue ratio, 30 min. ([9]; Tumor:Liver): 0.51
Tumor:tissue ratio, 1 hour ([9]; Tumor:Liver): 0.85
Tumor:tissue ratio, 30 min. ([9]; Tumor:Lungs): 0.87
Tumor:tissue ratio, 1 hour ([9]; Tumor:Lungs): 1.1
Tumor:tissue ratio, 30 min. ([9]; Tumor:Sceletal muscles): 1.2
Tumor:tissue ratio, 1 hour ([9]; Tumor:Sceletal muscles): 1.3
Tumor:tissue ratio, 30 min. ([9]; Tumor:Spleen): 0.63
Tumor:tissue ratio, 1 hour ([9]; Tumor:Spleen): 0.70
[valine-d6], 30 min. ([9]; Tumor): 9.2 µmol/g
[valine-d6], 1 hour ([9]; Tumor): 9.8 µmol/g
excess over the physiological concentration of free valine in animal tissues ([9]; physiological free valine about 0.5 μmol/g): more than 10 fold
Compound: [2H]C([2H])([2H])C([C@H](N)C(=O)O)C([2H])([2H])[2H] [valine-d6, Valine-4,4,4,4′, 4′, 4′-D6]

total mole fraction of α-deuterated valine ([10]; adipose tissue): 11%
total mole fraction of α-deuterated valine ([10]; blood): 12%
total mole fraction of α-deuterated valine ([10]; brain): 5%
total mole fraction of α-deuterated valine ([10]; kidneys): 17%
total mole fraction of α-deuterated valine ([10]; liver): 11%
total mole fraction of α-deuterated valine ([10]; skeletal muscles): 11%
total mole fraction of α-deuterated valine ([10]; spleen): 13%
total mole fraction of α-deuterated valine ([10]; tumor): 12%
Compound: Valine-2,4,4,4,4 “, 4”, 4′-D7 (mixed with valine-4,4,4,4 “, 4”, 4′-D6) [L-valine-d6/d7]
